Test results published in ChEMBL document CHEMBL5370524, “Design and synthesis of a novel class of PDE4 inhibitors with antioxidant properties as bifunctional agents for the potential treatment of COPD” (Eur J Med Chem, 2023).
Calls of active or inactive are those of the source. The rule behind the calls is not given here.

Assays:
[1] = molecular target: Phosphodiesterase 4 (Homo sapiens, UniProt P27815+Q08499+Q07343+Q08493); assay: Inhibition of PDE4 (unknown origin) using fluorescein-cAMP as substrate incubated for 45 mins by fluorescence polarization assay; type: protein assay
[2] = Antioxidant activity assessed as DPPH radical scavenging activity by spectrophotometric analysis; type: functional
[3] = tested on: RAW264.7; assay: Cytotoxicity against LPS-induced mouse RAW264.7 cells assessed as reduction in cell viability at 2.5 to 10 uM measured after 12 hrs by CCK-8 assay; type: toxicity, cell-based; settings: raw264.7, 12 h, dose 2.5-10 µM
[4] = species on record: Mus musculus; assay: Antioxidant activity in Fe2+-induced mouse assessed as inhibition of MDA production in lung homogenate at 250 to 1000 uM incubated for 60 mins; type: functional; settings: dose 250-1000 µM
[5] = tested on: RAW264.7; assay: Antiinflammatory activity in LPS-induced mouse RAW264.7 cells assessed as inhibition of TNF-alpha production at 2.5 to 10 uM pretreated with compound for 1 hr followed by LPS-stimulation and measured after 12 hrs by ELISA analysis; type: functional, cell-based; settings: dose 2.5-10 µM, time 13.0 hrs
[6] = Antioxidant activity assessed as DPPH radical scavenging activity at 10 uM by spectrophotometric analysis relative to control; type: functional
[7] = tested on: Mus musculus; assay: Antiinflammatory activity in LPS-induced ICR mouse model assessed as reduction in TNF-alpha production in serum at 10 mg/kg, ip pretreated with compound for 1 hr followed by LPS-induction and measured after 60 mins ny ELISA analysis; type: functional; design: scale not given: the % may be the effect or the level left; settings: time 2 hrs
[8] = tested on: Mus musculus; assay: Antiinflammatory activity in LPS-induced ICR mouse model assessed as reduction in TNF-alpha production in serum at 50 mg/kg, ip pretreated with compound for 1 hr followed by LPS-induction and measured after 60 mins ny ELISA analysis; type: functional; design: scale not given: the % may be the effect or the level left; settings: time 2 hrs
[9] = Metal chelating activity assessed as Fe3+-reducing capacity at 0.006 to 0.2 mM incubated for 30 mins by spectrophotometry analysis; settings: dose 0.006-0.2 mM
[10] = Metal chelating activity assessed as Fe2+-complex formation capacity at 0.1 to 1 mM by spectrophotometry analysis; settings: dose 0.1-1 mM
[11] = Metabolic stability in human liver microsome assessed as half life measured upto 45 mins in presence of NADPH by LC-MS/MS analysis; type: ADME; settings: liver microsomes
[12] = tested on: Mus musculus; assay: Antiinflammatory activity in LPS-induced ICR mouse model assessed as reduction in TNF-alpha production in serum at 100 mg/kg, ip pretreated with compound for 1 hr followed by LPS-induction and measured after 60 mins ny ELISA analysis; type: functional; design: scale not given: the % may be the effect or the level left; settings: time 2 hrs
[13] = Metabolic stability in human liver microsome assessed as intrinsic clearance measured upto 45 mins in presence of NADPH by LC-MS/MS analysis; type: ADME; settings: liver microsomes, read-out: CLH

With CCOc1cc(/C=C/C(=O)c2ccc(O)c(O)c2)ccc1OC as the compound, how does the IC50 [1] read?
Its IC50 is 1.45 µM.

And the IC50 [2]?
Its IC50 is 6.2 µM.

And the Activity [3]?
Its Activity is “Non-Toxic”.

What about the Activity [4] of the same compound?
Its Activity is “Active”.

And the Activity [5]?
Its Activity is “Active”.

With COc1ccc(/C=C/C(=O)c2ccc(O)cc2)cc1OC as the compound, how does the Activity [6] read?
The Activity was “inactive”.

For CC1=NN(c2ccccc2)C(=O)C1, which Activity [6] is on record?
The Activity was 23.6%.

With COc1ccc2c(c1)OC/C(=C\c1ccc(O)c(O)c1)C2=O as the compound, how does the Activity [6] read?
The Activity was 49.6%.

With COc1ccc(C2CNC(=O)C2)cc1OC1CCCC1 (stereo not drawn) [ROLIPRAM] as the compound, how does the Activity [7] read?
Its Activity is 55.1%.

For O=C(/C=C/c1ccc(O)c(O)c1)c1ccc(O)cc1, which Activity [6] is on record?
The Activity was 60.4%.

With COc1ccc(/C=C/C(=O)c2ccc(O)c(O)c2)cc1OC as the compound, how does the IC50 [1] read?
The IC50 was 2.78 µM.

What about the IC50 [2] of the same compound?
The IC50 was 10.9 µM.

And the Activity [3]?
The Activity was “Non-Toxic”.

And the Activity [4]?
The Activity was “Active”.

And the Activity [5]?
The Activity was “Active”.

What does the source list for COc1ccc(/C=C/C(=O)c2ccc(O)c(O)c2)cc1OCC1CC1?
IC50 [1]: 1.56 µM; Activity [8]: 20.2%; Activity [9]: Active; IC50 [2]: 6.97 µM; Activity [10]: Active; Activity [3]: Non-Toxic; half-life [11]: 48 min; Activity [12]: 54.7%; CLint scaled [13]: 36.2 mL/min/kg; Activity [4]: Active; Activity [5]: Active

Which Activity [6] does the source give for O=C1/C(=C/c2ccc(O)c(O)c2)Oc2cc(O)ccc21 here?
The Activity was 30.2%.

For COc1ccc2c(c1)OC/C(=C\c1ccc(O)c(OC)c1)C2=O, which Activity [6] is on record?
Its Activity is “inactive”.

Which Activity [6] does the source give for COc1ccc(/C=C2\Oc3cc(O)ccc3C2=O)cc1OC here?
Its Activity is “inactive”.

Which Activity [6] does the source give for COc1ccc(/C=C2\Oc3cc(O)ccc3C2=O)cc1OCC1CC1 here?
Its Activity is “inactive”.

With COc1ccc(/C=C2\COc3cc(O)ccc3C2=O)cc1OCC1CC1 as the compound, how does the Activity [6] read?
Its Activity is “inactive”.

With COc1ccc(/C=C2\COc3cc(O)ccc3C2=O)cc1O as the compound, how does the Activity [6] read?
The Activity was “inactive”.

With O=C(c1ccc(F)cc1)C1CCN(CCn2c(=O)[nH]c3ccccc3c2=O)CC1 [KETANSERIN] as the compound, how does the half-life [11] read?
The half-life was 31.1 min.

What about the CLint scaled [13] of the same compound?
Its CLint scaled is 56 mL/min/kg.

Which results are given for COc1ccc(/C=C/C(=O)c2ccc(O)c(O)c2)cc1OC(C)C?
IC50 [1]: 1.53 µM; IC50 [2]: 6.36 µM; Activity [3]: Non-Toxic; Activity [4]: Active; Activity [5]: Active

Which Activity [6] does the source give for COc1cc(/C=C2\COc3cc(O)ccc3C2=O)ccc1O here?
Its Activity is “inactive”.

For COc1ccc(/C=C/C(=O)c2ccc(O)cc2)cc1OCC1CC1, which Activity [6] is on record?
Its Activity is “inactive”.

Which Activity [6] does the source give for O=C1/C(=C/c2ccc(O)c(O)c2)COc2cc(O)ccc21 here?
The Activity was 48.3%.

What does the source list for COc1ccc(/C=C/C(=O)c2ccc(O)c(O)c2)cc1OC1CCCC1?
IC50 [1]: 1.82 µM; IC50 [2]: 5.95 µM; Activity [3]: Non-Toxic; Activity [4]: Active; Activity [5]: Active

Which Activity [6] does the source give for COc1ccc(/C=C2\COc3cc(O)ccc3C2=O)cc1OC here?
Its Activity is “inactive”.
